Active and inactive are the calls of the source. The rule behind the calls is not given here.

Experiment [1] concerns the target Replicase polyprotein 1ab (Severe acute respiratory syndrome coronavirus 2) (UniProt P0DTD1). As to the kind of experiment: Binding affinity to recombinant SARS-CoV-2 Nsp9 at 10 uM by Mass spectrometry analysis relative to control.
For experiment [2] the target is unchanged. As to the kind of experiment: Binding affinity to recombinant SARS-CoV-2 Nsp9 at 50 uM by Mass spectrometry analysis relative to control.
Experiment [3] shares this target. As to the kind of experiment: Binding affinity to recombinant SARS-CoV-2 Nsp9 at 10 to 50 uM by Mass spectrometry analysis. Conditions: dose 10-50 µM.
The target is the same in experiment [4]. As to the kind of experiment: Binding affinity to SARS-CoV-2 Nsp9 at 25 uM by LC-MS/MS analysis relative to control.
For experiment [5] the target is unchanged. The experiment is described as follows: Binding affinity to recombinant SARS-CoV-2 Nsp9 at 50 uM by Mass spectrometry analysis.
For experiment [6], the target named is Replicase polyprotein 1ab (Severe acute respiratory syndrome coronavirus 2, UniProt P0DTD1). As to the kind of experiment: Binding affinity to recombinant SARS-CoV-2 Nsp9 assessed as dissociation constant by Mass spectrometry analysis.

`C=C1C(=O)[C@@]23[C@H]4O[C@H]5O[C@]2(O)[C@@H](O)[C@@H]2C(C)(C)CC[C@H](O)[C@]52[C@@H]3CC[C@H]14`: the Activity amounted to 0.27% in experiment [1] and 1% in experiment [2].

On to `C=C1C[C@]23C4C5N(C)C[C@]6(C)C[C@H](O)C[C@@]5([C@@H]2[C@H](OC(=O)/C(C)=C/CO)[C@H](OC(=O)/C(C)=C/C)[C@H]14)[C@]6(O)[C@@H](O)[C@@H]3O` (stereo partly drawn), for which, in experiment [3], the outcome was inactive.

Turning to `C=C1C(=O)[C@]23[C@H](O)[C@@H]1CC[C@H]2[C@@]12CO[C@@]3(O)[C@@H](O)[C@@H]1C(C)(C)CC[C@@H]2O`, the outcome in experiment [4] was Active. Besides, the Activity in experiment [1] turned out to be 0.71%; in experiment [2], 1%.

`C=C1C(=O)[C@]23[C@H](O)[C@@H]1CC[C@H]2[C@@]12C(O)[C@@]3(O)C(=O)[C@@H]1C(C)(C)CC[C@@H]2O` (stereo partly drawn): the Activity in experiment [1] amounted to 0.05%; in experiment [2], 0.38%.

In the case of `C=C1C(=O)[C@]23[C@H](O)[C@@H]1C[C@@H](O)[C@H]2[C@]12CCCC(C)(C)[C@H]1[C@H](O)[C@@]3(O)OC2`, the Activity is 0.15% in experiment [1] and 0.89% in experiment [2].

`C=C1[C@@H]2C[C@@]3([C@@H]1O)[C@@H](CC2=O)[C@@]12[C@@H]4[C@@H]3C[C@@H]1[C@@](C)(CC[C@@H]2O)CN4CC`: the result in experiment [3] was inactive.

Regarding `C=C1C[C@]23C4C5N(C)C[C@]6(C)C[C@H](O)C[C@@]5([C@@H]2[C@H](OC(=O)/C(C)=C/C)[C@H](OC(=O)/C(C)=C/C)[C@H]14)[C@]6(O)[C@@H](O)[C@@H]3O` (stereo partly drawn), in experiment [3], the result was inactive.

Take `C=C1C[C@]23C4C5N(C)C[C@]6(C)C[C@H](O)C[C@@]5([C@@H]2[C@H](OC(=O)c2ccc(O)cc2)[C@H](OC(=O)/C(C)=C/C)[C@H]14)[C@]6(O)[C@@H](O)[C@@H]3O` (stereo partly drawn): in experiment [3], the result was inactive.

Take `C=C1C[C@]23C[C@@]1(O)CC[C@H]2[C@@]12C=C[C@H](O)[C@](C)(C(=O)O1)[C@H]2[C@@H]3C(=O)O`: in experiment [5], the outcome was Active.

As to `C=C1C(=O)[C@]23[C@@H](O)[C@H]1CC[C@H]2[C@@]12COC3(O)C[C@@H]1C(C)(C)CC[C@@H]2O`, the Activity in experiment [1] worked out at 0%; in experiment [2], 0.04%.

Consider `CC(C)[C@]1(O)C(OC(=O)c2ccc[nH]2)[C@@]2(O)[C@@]3(C)C[C@]4(O)O[C@@]5([C@H](O)[C@@H](C)CC[C@]35O)[C@@]2(O)[C@@]14C` (stereo partly drawn), for which, in experiment [6], the dissociation constant (Kd) amounted to 48 µM. In experiment [4], the outcome was Active.

Regarding `C=C1[C@H]2CC[C@H]3[C@@]45CO[C@](O)([C@@H](O)[C@@H]4C(C)(C)CC[C@@H]5O)[C@@]3([C@@H]1O)[C@@H]2O`, the Activity in experiment [1] stood at 2%; in experiment [2] it was 16%.

Take `C=C1C(=O)[C@]23[C@H](O)[C@@H]1[C@@H](O)C[C@H]2[C@]12CCCC(C)(C)[C@H]1[C@H](O)[C@@]3(O)OC2`: the outcome in experiment [3] was inactive. Besides, the Activity in experiment [1] and in experiment [2] was 0% in each case.

One may read the Kd as the free concentration of one partner at which half of the binding sites on the other are occupied at equilibrium, for simple one-to-one binding.

The record behind these values is ChEMBL document CHEMBL5390290, “Discovery of Anti-SARS-CoV-2 Nsp9 Binders from Natural Products by a Native Mass Spectrometry Approach” (J Nat Prod, 2023).
